Experimental data reported in patent US7138361B2, “Herbicidal heterocycles” (E. I. du Pont de Nemours and Company, priority 2000, dated 2006).

Columns and labels:
Experiment in all cases: Test C preemergence
Type in all cases: in vivo
Nightshade [1] = details: Rate 250 g/ha, visual evaluation after 12 to 14 days
[2] = system: common ragweed (Ambrosia elatior)
Excerpt: (§1) Seeds of plant species selected from bermudagrass (Cynodon dactylon), Surinam grass (Brachiaria decumbens), cocklebur (Xanthium strumarium), corn (Zea mays), crabgrass (Digitaria sanguinalis), woolly cupgrass (Eriochloa villosa), giant foxtail (Setaria faberii), goosegrass (Eleusine indica), johnsongrass (Sorghum halepense), kochia (Kochia scoparia), lambsquarters (Chenopodium album), morningglory (Ipomoea hederacea), yellow nutsedge (Cyperus esculentus), pigweed (Amaranthus retroflexus), common ragweed (Ambrosia elatior), soybean (Glycine max) and velvetleaf (Abutilon theophrasti) were planted and treated preemergence with test chemicals formulated in a non-phytotoxic solvent mixture which included a surfactant.
(§2) At the same time, plants selected from these crop and weed species and also winter barley (Hordeum vulgare), blackgrass (Alopecurus myosuroides), canary grass (Phalaris minor), chickweed (Stellaria media), downy brome (Bromus tectorum), green foxtail (Setaria viridis), Italian ryegrass (Lolium multiflorum), wheat (Triticum aestivum), wild oat (Avena fatua) and windgrass (Apera spica-venti) were treated with postemergence applications of some of the test chemicals formulated in the same manner. Plants ranged in height from 2 to 18 cm (1- to 4-leaf stage) for postemergence treatments. Plant species in the flooded paddy test consisted of rice (Oryza saliva), smallflower flatsedge (Cyperus difformis), duck salad (Heteranthera limosa) and barnyardgrass (Echinochloa crus-galli) grown to the 2-leaf stage for testing. Treated plants and controls were maintained in a greenhouse for 12 to 14 days, after which time all species were compared to controls and visually evaluated. Plant response ratings, summarized in Table C, are based on a scale of 0 to 100 where 0 is no effect and 100 is complete control. A dash (-) response means no test result.

[3] = system: johnsongrass (Sorghum halepense)
Excerpt: as §1, §2

[4] = system: woolly cupgrass (Eriochloa villosa)
Excerpt: as §1, §2

[5] = system: pigweed (Amaranthus retroflexus)
Excerpt: as §1, §2

Nightshade [6] = system: Nightshade
Excerpt: as §1, §2

[7] = system: bermudagrass (Cynodon dactylon)
Excerpt: as §1, §2

[8] = system: Surinam grass (Brachiaria decumbens)
Excerpt: as §1, §2

[9] = system: goosegrass (Eleusine indica)
Excerpt: as §1, §2

[10] = system: morningglory (Ipomoea hederacea)
Excerpt: as §1, §2

[11] = system: crabgrass (Digitaria sanguinalis)
Excerpt: as §1, §2

[12] = system: velvetleaf (Abutilon theophrasti)
Excerpt: as §1, §2

[13] = system: giant foxtail (Setaria faberii)
Excerpt: as §1, §2

Sunflower = system: Sunflower
Excerpt: as §1, §2

soybean (Glycine max) = system: soybean (Glycine max)
Excerpt: as §1, §2

corn (Zea mays) = system: corn (Zea mays)
Excerpt: as §1, §2

[14] = system: lambsquarters (Chenopodium album)
Excerpt: as §1, §2

[15] = system: yellow nutsedge (Cyperus esculentus)
Excerpt: as §1, §2

[16] = system: cocklebur (Xanthium strumarium)
Excerpt: as §1, §2

[17] = Preemergence, Rate 500 g/ha, scale 0 to 100
[18] = Rate 62 g/ha, scale 0 to 100, 0 no effect, 100 complete control
[19] = preemergence, Rate 250 g/ha, visual evaluation after 12 to 14 days
[20] = preemergence, Rate 125 g/ha, scale 0 to 100, 0 no effect, 100 complete control

SMILES: CC(C)c1ccn(C2SCN(c3cccc(OC(F)(F)F)c3)C2=O)n1 (stereo not shown) [Compound 31]
- Plant response rating (0 to 100), Nightshade (Nightshade [1]): 100
- Plant response rating, Ragweed, Common [2, 17]: 100
- Plant response rating, Ragweed, Common [2, 18]: 30
- Plant response rating (0 to 100), Ragweed, Common [2, 19]: 90
- Plant response rating, Ragweed, Common [2, 20]: 90
- Plant response rating, Johnsongrass [3, 17]: 100
- Plant response rating, Johnsongrass [3, 18]: 30
- Plant response rating (0 to 100), Johnsongrass [3, 19]: 90
- Plant response rating, Johnsongrass [3, 20]: 60
- Plant response rating, Cupgrass, Woolly [4, 17]: 100
- Plant response rating, Cupgrass, Woolly [4, 18]: 50
- Plant response rating (0 to 100), Cupgrass, Woolly [4, 19]: 90
- Plant response rating, Cupgrass, Woolly [4, 20]: 60
- Plant response rating, Pigweed [5, 17]: 90
- Plant response rating, Pigweed [5, 18]: 30
- Plant response rating (0 to 100), Pigweed [5, 19]: 80
- Plant response rating, Pigweed [5, 20]: 100
- Plant response rating, Nightshade (Nightshade [6]; [18]): 80
- Plant response rating, Nightshade (Nightshade [6]; Rate 125 g/ha, scale 0 to 100, 0 no effect, 100 complete control): 90
- Plant response rating, Nightshade (Nightshade [6]; Rate 500 g/ha, scale 0 to 100): 100
- Plant response rating, Bermudagrass [7, 17]: 100
- Plant response rating, Bermudagrass [7, 18]: 90
- Plant response rating (0 to 100 where 0 is no effect and 100 is complete control), Bermudagrass [7, 19]: 100
- Plant response rating, Bermudagrass [7, 20]: 100
- Plant response rating, Surinam grass [8, 17]: 70
- Plant response rating, Surinam grass [8, 18]: 50
- Plant response rating (0 to 100), Surinam grass [8, 19]: 60
- Plant response rating, Surinam grass [8, 20]: 50
- Plant response rating, Goosegrass [9, 17]: 100
- Plant response rating, Goosegrass [9, 18]: 100
- Plant response rating (0 to 100), Goosegrass [9, 19]: 100
- Plant response rating, Goosegrass [9, 20]: 100
- Plant response rating, Morningglory [10, 17]: 50
- Plant response rating, Morningglory [10, 18]: 30
- Plant response rating (0 to 100), Morningglory [10, 19]: 40
- Plant response rating, Morningglory [10, 20]: 30
- Plant response rating, Crabgrass [11, 17]: 100
- Plant response rating, Crabgrass [11, 18]: 100
- Plant response rating (0 to 100), Crabgrass [11, 19]: 100
- Plant response rating, Crabgrass [11, 20]: 100
- Plant response rating, Velvetleaf [12, 17]: 30
- Plant response rating, Velvetleaf [12, 18]: 0
- Plant response rating (0 to 100), Velvetleaf [12, 19]: 30
- Plant response rating, Velvetleaf [12, 20]: 0
- Plant response rating, Foxtail, Giant [13, 17]: 100
- Plant response rating, Foxtail, Giant [13, 18]: 40
- Plant response rating (0 to 100), Foxtail, Giant [13, 19]: 60
- Plant response rating, Foxtail, Giant [13, 20]: 50
- Plant response rating, Sunflower (Sunflower; [18]): 20
- Plant response rating, Sunflower (Sunflower; Rate 500 g/ha, scale 0 to 100): 40
- Plant response rating, Soybean (soybean (Glycine max); [17]): 0
- Plant response rating, Soybean (soybean (Glycine max); [18]): 0
- Plant response rating (0 to 100), Soybean (soybean (Glycine max); [19]): 0
- Plant response rating, Soybean (soybean (Glycine max); [20]): 0
- Plant response rating, Corn (corn (Zea mays); [17]): 60
- Plant response rating, Corn (corn (Zea mays); [18]): 40
- Plant response rating (0 to 100), Corn (corn (Zea mays); [19]): 40
- Plant response rating, Corn (corn (Zea mays); [20]): 40
- Plant response rating, Lambsquarters [14, 17]: 100
- Plant response rating, Lambsquarters [14, 18]: 100
- Plant response rating (0 to 100), Lambsquarters [14, 19]: 100
- Plant response rating, Lambsquarters [14, 20]: 100
- Plant response rating, Nutsedge [15, 17]: 90
- Plant response rating, Nutsedge [15, 18]: 40
- Plant response rating (0 to 100), Nutsedge [15, 19]: 70
- Plant response rating, Nutsedge [15, 20]: 50
- Plant response rating, Cocklebur [16, 17]: 30
- Plant response rating, Cocklebur [16, 18]: 0
- Plant response rating (0 to 100), Cocklebur [16, 19]: 30
- Plant response rating, Cocklebur [16, 20]: 0
